Laboratory results reported in patent US12612410B2 (CHILDREN'S HOSPITAL MEDICAL CENTER, priority 2020, dated 2026).
Changes are numbered by the printed parent chain.

What was measured:
FLT3 K663Q = target: T1, FLT3 K663Q (Homo sapiens, UniProt P36888, K663Q); experiment: DiscoverX KINOMEscan competition binding, FLT3 K663Q
T1 construct: host or cells: E. coli BL21-derived host (T7 phage) or HEK-293
T1 sequence (P36888 27-993 K663Q): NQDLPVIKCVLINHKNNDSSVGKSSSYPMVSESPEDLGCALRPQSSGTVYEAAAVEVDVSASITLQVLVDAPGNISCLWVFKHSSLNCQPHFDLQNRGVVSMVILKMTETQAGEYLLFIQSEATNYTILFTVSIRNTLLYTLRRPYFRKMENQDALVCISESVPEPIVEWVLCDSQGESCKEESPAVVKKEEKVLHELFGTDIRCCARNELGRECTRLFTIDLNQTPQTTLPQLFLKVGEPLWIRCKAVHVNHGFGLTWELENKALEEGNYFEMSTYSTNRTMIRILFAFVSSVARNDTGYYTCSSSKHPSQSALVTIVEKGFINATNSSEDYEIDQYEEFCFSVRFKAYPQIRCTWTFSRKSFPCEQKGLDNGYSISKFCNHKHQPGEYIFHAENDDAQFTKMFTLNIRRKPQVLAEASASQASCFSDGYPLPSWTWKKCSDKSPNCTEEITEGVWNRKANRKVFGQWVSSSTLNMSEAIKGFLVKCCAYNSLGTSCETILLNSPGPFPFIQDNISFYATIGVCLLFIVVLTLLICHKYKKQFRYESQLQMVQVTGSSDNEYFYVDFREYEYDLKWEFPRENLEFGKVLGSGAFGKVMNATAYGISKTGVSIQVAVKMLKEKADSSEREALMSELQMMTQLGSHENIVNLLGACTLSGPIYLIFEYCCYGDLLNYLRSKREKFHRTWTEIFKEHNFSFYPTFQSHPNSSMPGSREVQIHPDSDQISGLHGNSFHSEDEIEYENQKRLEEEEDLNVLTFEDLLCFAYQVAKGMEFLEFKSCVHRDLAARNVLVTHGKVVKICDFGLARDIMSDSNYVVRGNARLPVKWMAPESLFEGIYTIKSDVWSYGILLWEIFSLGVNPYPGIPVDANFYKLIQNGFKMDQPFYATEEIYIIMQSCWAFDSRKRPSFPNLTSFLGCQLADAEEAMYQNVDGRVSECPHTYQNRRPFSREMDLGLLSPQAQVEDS
Text: (§1) Kinase binding data were obtained for various exemplary compounds prepared according to Examples 1-24 using the DiscoverX KINOMVIEscan® active site-directed competition binding site-directed assay protocol described below. […] As a result, the data report thermodynamic interaction affinities (Kd values), rather than IC50 values that are dependent on ATP concentrations. The assay uses a DNA-tagged version of the protein kinase, and an immobilized ligand bound to a solid support. Compounds that directly or indirectly prevent kinase binding to the immobilized ligand reduce the amount of kinase captured on the solid support, which is detected using an ultra-sensitive qPCR method. Affinity constants reported from the assay have been reported to be independent of the immobilized ligand used that is coupled to the solid support (See supplemental information in Fabian, M. A. et. al., (2005) Nat. Biotechnol. 23, 329-336; Wodicka, L. M. et. al., (2010) Chem. Biol. 17, 1241-1249.)
(§2) Kinase-tagged T7 phage strains were prepared in an E. coli host derived from the BL21 strain. E. coli were grown to log-phase and infected with T7 phage and incubated with shaking at 32° C. until lysis. The lysates were centrifuged and filtered to remove cell debris. The remaining kinases were produced in HEK-293 cells and subsequently tagged with DNA for qPCR detection. Streptavidin-coated magnetic beads were treated with biotinylated small molecule ligands for 30 minutes at room temperature to generate affinity resins for kinase assays. The liganded beads were blocked with excess biotin and washed with blocking buffer (SeaBlock (Pierce), 1% BSA, 0.05% Tween 20, 1 mM DTT) to remove unbound ligand and to reduce non-specific binding. Binding reactions were assembled by combining kinases, liganded affinity beads, and test compounds in 1× binding buffer (20% SeaBlock, 0.17×PBS, 0.05% Tween 20, 6 mM DTT). Test compounds were prepared as 111× stocks in 100% DMSO. Kds were determined using an 11-point 3-fold compound dilution series with three DMSO control points. All compounds for Kd measurements are distributed by acoustic transfer (non-contact dispensing) in 100% DMSO. The compounds were then diluted directly into the assays such that the final concentration of DMSO was 0.9%. All reactions were performed in polypropylene 384-well plates. Each was a final volume of 0.02 mL. The assay plates were incubated at room temperature with shaking for 1 hour and the affinity beads were washed with wash buffer (1×PBS, 0.05% Tween 20). The beads were then re-suspended in elution buffer (1×PBS, 0.05% Tween 20, 0.5 μM nonbiotinylated affinity ligand) and incubated at room temperature with shaking for 30 minutes. The kinase concentration in the eluates was measured by qPCR.
(§3) Binding constants (Kds) were calculated with a standard dose-response curve using the Hill equation. The Hill Slope was set to −1. Curves were fitted using a non-linear least square fit with the Levenberg-Marquardt algorithm.

FLT3 D835Y = target: T2, FLT3 D835Y (Homo sapiens, UniProt P36888, D835Y); experiment: DiscoverX KINOMEscan competition binding, FLT3 D835Y
T2 construct: host or cells: E. coli BL21-derived host (T7 phage) or HEK-293
T2 sequence (P36888 27-993 D835Y): T1 sequence (P36888 27-993 K663Q) with Q637K, D809Y
Text: as §1, §2, §3

SMILES: CC1(c2cn3c(-c4cccc(N[C@H]5CNC[C@@H]5F)n4)cnc3cn2)CC1 [Compound 1, N-((3S,4S)-4-fluoropyrrolidin-3-yl)-6-(6-(1-methylcyclopropyl)imidazo[1,2-a]pyrazin-3-yl)pyridin-2-amine]
- Kd (FLT3 K663Q): 0.24 nM
- Kd (FLT3 D835Y): 0.049 nM

SMILES: CC1(c2cn3c(-c4cccc(N[C@@H]5CCNC5)n4)cnc3cn2)CC1 [Compound 3, (R)-6-(6-(1-methylcyclopropyl)imidazo[1,2-a]pyrazin-3-yl)-N-(pyrrolidin-3-yl)pyridin-2-amine]
- Kd (FLT3 K663Q): 0.22 nM
- Kd (FLT3 D835Y): 0.053 nM

SMILES: CC1(c2cn3c(-c4cccc(N[C@H]5CNCC56CC6)n4)cnc3cn2)CC1 [Compound 5, (R)-N-(6-(6-(1-methylcyclopropyl)imidazo[1,2-a]pyrazin-3-yl)pyridin-2-yl)-5-azaspiro[2.4]heptan-7-amine]
- Kd (FLT3 K663Q): 0.18 nM
- Kd (FLT3 D835Y): 0.036 nM

SMILES: FC(F)(F)C1(c2cn3c(-c4cccc(N[C@@H]5CCNC5)n4)cnc3cn2)CC1 [Compound 10, (R)-N-(pyrrolidin-3-yl)-6-(6-(1-(trifluoromethyl)cyclopropyl)imidazo[1,2-a]pyrazin-3-yl)pyridin-2-amine]
- Kd (FLT3 K663Q): 0.45 nM
- Kd (FLT3 D835Y): 0.044 nM

SMILES: FC(F)c1cn2c(-c3cccc(N[C@H]4CNC[C@@H]4F)n3)cnc2cn1 [Compound 16, 6-(6-(difluoromethyl)imidazo[1,2-a]pyrazin-3-yl)-N-((3S,4S)-4-fluoropyrrolidin-3-yl)pyridin-2-amine]
- Kd (FLT3 K663Q): 1.4 nM
- Kd (FLT3 D835Y): 0.053 nM

SMILES: FC(F)c1cn2c(-c3cccc(N[C@H]4CNCC[C@@H]4F)n3)cnc2cn1 [Compound 25, 6-(6-(difluoromethyl)imidazo[1,2-a]pyrazin-3-yl)-N-((3S,4S)-4-fluoropiperidin-3-yl)pyridin-2-amine]
- Kd (FLT3 K663Q): 0.59 nM
- Kd (FLT3 D835Y): 0.071 nM

SMILES: CC(C)(O)c1cn2c(-c3cccc(N[C@@H]4CCCNC4)n3)cnc2cn1 [Compound 30, (R)-2-(3-(6-(piperidin-3-ylamino)pyridin-2-yl)imidazo[1,2-a]pyrazin-6-yl)propan-2-ol]
- Kd (FLT3 K663Q): 0.83 nM
- Kd (FLT3 D835Y): 0.47 nM

SMILES: CC(C)(O)c1cn2c(-c3cccc(N[C@H]4CNCC[C@@H]4F)n3)cnc2cn1 [Compound 31, 2-(3-(6-(((3S,4S)-4-fluoropiperidin-3-yl)amino)pyridin-2-yl)imidazo[1,2-a]pyrazin-6-yl)propan-2-ol]
- Kd (FLT3 K663Q): 2.4 nM
- Kd (FLT3 D835Y): 0.18 nM

SMILES: FC(F)(F)COc1cn2c(-c3cccc(N[C@@H]4CCNC4)n3)cnc2cn1 [Compound 38, (R)-N-(pyrrolidin-3-yl)-6-(6-(2,2,2-trifluoroethoxy)imidazo[1,2-a]pyrazin-3-yl)pyridin-2-amine]
- Kd (FLT3 K663Q): 2.3 nM
- Kd (FLT3 D835Y): 0.035 nM

SMILES: F[C@H]1CNC[C@@H]1Nc1cccc(-c2cnc3cnc(C4CC4)cn23)n1 [Compound 50, 6-(6-cyclopropylimidazo[1,2-a]pyrazin-3-yl)-N-((3S,4S)-4-fluoropyrrolidin-3-yl)pyridin-2-amine]
- Kd (FLT3 K663Q): 0.39 nM
- Kd (FLT3 D835Y): 0.044 nM

SMILES: Cn1cc(-c2cn3c(-c4cccc(N[C@H]5CNC[C@@H]5F)n4)cnc3cn2)cn1 [Compound 52, N-((3S,4S)-4-fluoropyrrolidin-3-yl)-6-(6-(1-methyl-1H-pyrazol-4-yl)imidazo[1,2-a]pyrazin-3-yl)pyridin-2-amine]
- Kd (FLT3 K663Q): 0.82 nM
- Kd (FLT3 D835Y): 0.064 nM
